Assay results published in ChEMBL document CHEMBL1201862, “PubChem BioAssay data set” (2004).
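Dose response: 5 concentrations. Exposure: 48 h. Format: 96-well plates. Endpoint: linear interpolation; highest concentration if not reached. Here, GI50 denotes the concentration required for 50% inhibition of growth.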 Calls of active or inactive are those of the source. Rule as the data show it: active = GI50 up to about 1.1 µM and inactive = higher.

Tests used:
Experiment in all cases: NCI anticancer screen, dose series, 48 h
U-251 = test system: U-251
M14 = test system: M14
CAKI-1 = test system: CAKI-1
UACC-62 = test system: UACC-62
MDA-MB-231 = test system: MDA-MB-231
DU-145 = test system: DU-145
OVCAR-8 = test system: OVCAR-8
CCRF-CEM = test system: CCRF-CEM
HL-60 = test system: HL-60
PC-3 = test system: PC-3
HCT-116 = test system: HCT-116
HCC 2998 = test system: HCC 2998
UACC-257 = test system: UACC-257
TK-10 = test system: TK-10
Malme-3M = test system: Malme-3M
NCI-H522 = test system: NCI-H522
SW-620 = test system: SW-620
SK-MEL-2 = test system: SK-MEL-2
KM12 = test system: KM12

SMILES	GI50 (U-251)	GI50 (M14)	GI50 (CAKI-1)	GI50 (UACC-62)	GI50 (MDA-MB-231)	GI50 (DU-145)	GI50 (OVCAR-8)	GI50 (CCRF-CEM)	GI50 (HL-60)	GI50 (PC-3)	GI50 (HCT-116)	GI50 (HCC 2998)	GI50 (UACC-257)	GI50 (TK-10)	GI50 (Malme-3M)	GI50 (NCI-H522)	GI50 (SW-620)	GI50 (SK-MEL-2)	GI50 (KM12)
CC(=O)c1sc2c(c1OC(=O)c1ccc(Cl)cc1)c(=O)n(-c1ccccc1)c(=S)n2-c1ccccc1	2.82 µM (inactive)	1.18 µM (inactive)	3.39 µM (inactive)	15.7 µM (inactive)	3.91 µM (inactive)	25.9 µM (inactive)	3.48 µM (inactive)	1.06 µM (active)	9.23 µM (inactive)	3.56 µM (inactive)	9.08 µM (inactive)	19.1 µM (inactive)	5.19 µM (inactive)	22.4 µM (inactive)	1.94 µM (inactive)	1.53 µM (inactive)	12.7 µM (inactive)	1.27 µM (inactive)	10.9 µM (inactive)
COc1ccc(C2OC(c3ccncc3)=NN2C)cc1F (stereo not given)	> 100 µM (inactive)	> 100 µM (inactive)	51.4 µM (inactive)	> 100 µM (inactive)	> 100 µM (inactive)	> 100 µM (inactive)	> 100 µM (inactive)	> 100 µM (inactive)	> 100 µM (inactive)	> 100 µM (inactive)	> 100 µM (inactive)	> 100 µM (inactive)	> 100 µM (inactive)	> 100 µM (inactive)	> 100 µM (inactive)	> 100 µM (inactive)	> 100 µM (inactive)	> 100 µM (inactive)	> 100 µM (inactive)
CC1=NN(C(=O)CC(=O)Nc2cccc(Cl)c2)C(=O)C1/N=N/c1ccc(C(=O)O)cc1 (stereo not given)	> 100 µM (inactive)	> 100 µM (inactive)	> 100 µM (inactive)	> 100 µM (inactive)	> 100 µM (inactive)	> 100 µM (inactive)	> 100 µM (inactive)	48.4 µM (inactive)	> 100 µM (inactive)	> 100 µM (inactive)	> 100 µM (inactive)	> 100 µM (inactive)	> 100 µM (inactive)	> 100 µM (inactive)	> 100 µM (inactive)	> 100 µM (inactive)	> 100 µM (inactive)	> 100 µM (inactive)	> 100 µM (inactive)
CCCCC/C(=N\c1[nH]nnc1C(N)=O)OCC	> 100 µM (inactive)	> 100 µM (inactive)	> 100 µM (inactive)	> 100 µM (inactive)	> 100 µM (inactive)	> 100 µM (inactive)	> 100 µM (inactive)	> 100 µM (inactive)	> 100 µM (inactive)	> 100 µM (inactive)	> 100 µM (inactive)	> 100 µM (inactive)	> 100 µM (inactive)	> 100 µM (inactive)	> 100 µM (inactive)	> 100 µM (inactive)	> 100 µM (inactive)	> 100 µM (inactive)	> 100 µM (inactive)
COC(=O)[C@@H]1COC(C(C)(C)C)N1C(=O)C(c1ccccc1)c1ccccc1 (stereo not given in full)	42 µM (inactive)	52 µM (inactive)	> 100 µM (inactive)	44.1 µM (inactive)	45.2 µM (inactive)	> 100 µM (inactive)	44.1 µM (inactive)	26.7 µM (inactive)	45.3 µM (inactive)	24.8 µM (inactive)	41.3 µM (inactive)	48.3 µM (inactive)	33.6 µM (inactive)	50.4 µM (inactive)	> 100 µM (inactive)	59 µM (inactive)	43.8 µM (inactive)	90.2 µM (inactive)	43.6 µM (inactive)
